PubChem BioAssay (NCI)
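Where inhibition never reached the appropriate level, the endpoint shown equals the highest concentration tested. Otherwise, values were interpolated linearly from a five-concentration, 48-hour dose response in 96-well plates. GI50: concentration for 50% inhibition of growth. TGI marks complete inhibition of growth.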

What was measured:
Assay in all cases: DTP human tumour cell line panel, 48 h
786-0 renal = test system: 786-0 renal
EKVX NSCLC = test system: EKVX NSCLC
KM12 colon = test system: KM12 colon
MALME-3M melanoma = test system: MALME-3M melanoma
OVCAR-3 ovarian = test system: OVCAR-3 ovarian
PC-3 prostate = test system: PC-3 prostate
SK-OV-3 ovarian = test system: SK-OV-3 ovarian
SNB-75 CNS = test system: SNB-75 CNS
SW-620 colon = test system: SW-620 colon
TK-10 renal = test system: TK-10 renal

Structure (SMILES)	GI50 (786-0 renal) [µM]	TGI (786-0 renal) [µM]	GI50 (EKVX NSCLC) [µM]	TGI (EKVX NSCLC) [µM]	GI50 (KM12 colon) [µM]	TGI (KM12 colon) [µM]	GI50 (MALME-3M melanoma) [µM]	TGI (MALME-3M melanoma) [µM]	GI50 (OVCAR-3 ovarian) [µM]	TGI (OVCAR-3 ovarian) [µM]	GI50 (PC-3 prostate) [µM]	TGI (PC-3 prostate) [µM]	GI50 (SK-OV-3 ovarian) [µM]	TGI (SK-OV-3 ovarian) [µM]	GI50 (SNB-75 CNS) [µM]	TGI (SNB-75 CNS) [µM]	GI50 (SW-620 colon) [µM]	TGI (SW-620 colon) [µM]	GI50 (TK-10 renal) [µM]	TGI (TK-10 renal) [µM]
c1ccc2[nH]c(-c3ccc(-c4nccc5c4[nH]c4ccccc45)cc3)nc2c1	2.24	6.3	3.45	16.8	3.59	15.7	1.85	3.61	1.8	3.64	8.59	25.1	4.37	15.9	1.57	4.07	2.79	8.48	2.07	4.59
C=C(C)C(=O)O[C@H]1CC(=C)[C@@H]2C[C@H](O)[C@](O)(CCl)[C@@H]2[C@H]2OC(=O)C(=C)[C@@H]21	1.93	3.88	12.3	25.7	1.8	3.99	1.86	3.6	1.81	4.38	3.03	10.4	16.2	30.2	6.97	20.7	2.08	4.57	0.512	1.82
Cc1nn2c(/C=C3\C(=O)Nc4ccc(Cl)cc43)c(C)nc2s1	33.7	> 100	92	> 100	6.84	> 100	> 100	> 100	23.3	> 100	21.3	> 100	49.8	> 100	16	92.2	23.4	> 100	> 100	> 100
O=C1c2ccccc2C(O)(O)C1(O)C1(O)C(=O)c2ccccc2C1(O)O (stereo not drawn)	–	> 100	–	> 100	–	> 100	–	54.3	–	65.9	–	> 100	–	> 100	–	72.3	–	> 100	–	58.1
COc1cc(OC(=O)c2ccccc2)cc2c1C(=O)C=CC2=O	–	18.9	–	30.2	–	38.8	–	27	–	14.2	–	28.5	–	37	–	49.2	–	39.2	–	32.5
CCN(CC)CCCCNc1c2ccccc2[n+](C)c2c1[nH]c1ccccc12	1.29	> 26	0.298	3.16	0.385	4.79	0.217	0.671	0.433	3.56	0.355	2.29	0.366	3.72	0.297	1.27	0.395	7.47	2.52	12.6
CN(O)c1nc(N(C)O)nc(N2CCOCC2)n1	3.47	74	1.9	> 100	15.5	> 100	12.3	> 100	10.2	> 100	7.82	> 100	12.6	> 100	27.2	> 100	11.2	> 100	5.89	> 100
COc1ccc(C(=O)c2cc(OC)c(OC)c(OC)c2)cc1OC(=O)CCl	0.554	> 100	0.832	> 100	< 0.0143	> 100	–	> 100	0.0287	–	< 0.0192	> 100	0.163	> 100	0.0257	> 100	< 0.0208	> 100	19.4	> 100
CC(C)N(Cc1ccccc1)c1c(S)ssc1=S	3.65	> 100	2.2	8.49	2.47	21.7	1.65	5.99	1.21	> 100	2.23	9.44	2.47	9.59	2.98	26.9	2.69	12.7	5.08	> 100
COc1ccc(-c2cn(-c3cc(OC)c(OC)c(OC)c3)c(SCc3ccccc3)n2)cc1OC	> 100	> 100	> 100	> 100	> 100	> 100	> 100	> 100	> 100	> 100	> 100	> 100	> 100	> 100	82.3	> 100	> 100	> 100	> 100	> 100
C(#Cc1ccccc1C#Cc1cccs1)c1cccs1	24.7	> 100	73.1	> 100	29.5	> 100	56.9	> 100	57.1	> 100	25.4	> 100	33.9	> 100	> 100	> 100	42	> 100	27.7	> 100
O=C(CCCCCCCCC(=O)N/N=C\c1ccccc1O)N/N=C\c1ccccc1O	0.334	1.99	1.53	> 69.6	0.785	> 40.3	0.566	17.7	0.343	> 51.2	0.855	> 58.6	0.899	15.6	1.82	15.3	1.28	24.1	1.87	> 46.7
Cc1ccc(Nc2n[nH]c(=S)s2)cc1C	–	> 100	–	> 100	–	> 100	–	> 100	–	> 100	–	> 100	–	> 100	–	> 100	–	> 100	–	> 100
C#Cc1c(F)ccc2cc(O)cc(-c3ncc4c(N5CC6CCC(C5)N6)nc(OC[C@@]56CCCN5C[C@H](F)C6)nc4c3F)c12	15	31	21.7	> 54.6	5.03	17.5	15.5	29.3	12.7	25.9	14.8	33.8	17.7	35.6	17.1	46.4	1.32	10.3	21.8	> 55.5
